The text below walks through data of BindingDB's records for doi:10.1016/j.bmcl.2006.12.025 (Pharmacopeia Drug Discovery, 2007).

Sequence of Prostacyclin receptor (P43119 whole entry): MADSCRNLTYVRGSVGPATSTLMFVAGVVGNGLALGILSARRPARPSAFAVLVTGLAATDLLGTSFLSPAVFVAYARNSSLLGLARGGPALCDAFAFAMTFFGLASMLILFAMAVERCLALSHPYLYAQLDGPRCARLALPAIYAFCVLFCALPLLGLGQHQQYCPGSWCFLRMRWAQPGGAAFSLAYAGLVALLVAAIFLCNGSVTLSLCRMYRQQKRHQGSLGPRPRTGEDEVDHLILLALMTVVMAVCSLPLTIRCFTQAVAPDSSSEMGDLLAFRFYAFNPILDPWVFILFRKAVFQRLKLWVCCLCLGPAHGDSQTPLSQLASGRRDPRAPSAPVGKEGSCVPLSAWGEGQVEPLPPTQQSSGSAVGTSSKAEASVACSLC

The target in the first experiment is Prostacyclin receptor (Homo sapiens, UniProt P43119). Description: IP Receptor Filter Binding Assay and cAMP Assay. The conditions noted are these: pH 7.4; 22 °C. The source says:
IP receptor binding activity was quantified via a filter binding assay measuring displacement of [3H]-Iloprost binding to human platelet membranes. Raw data were fit to the […] to calculate IC50 values. EC50/IC50 values were obtained from functional antagonism assay by measuring the inhibition of cAMP production induced by Iloprost in human erythroleukemia (HEL) cells using a Perkin-Elmer LANCETM cAMP detection kit.
With `CC(=O)Nc1cccc(-c2ccc(Cc3ocnc3C(=O)NC(C)c3ccccc3)cc2)c1` (racemic) [5-{[4-(3-acetamidophenyl)phenyl]methyl}-N-(1-phenylethyl)-1,3-oxazole-4-carboxamide], the IC50 amounted to 278 nM.

In the case of `CC(=O)Nc1cccc(-c2ccc(Cc3ocnc3C(=O)NCCc3ccccc3)cc2)c1` [5-{[4-(3-acetamidophenyl)phenyl]methyl}-N-(2-phenylethyl)-1,3-oxazole-4-carboxamide], the IC50 was 138 nM. Compound `CC(=O)Nc1cccc(-c2ccc(Cc3ocnc3C(=O)NC(C)C)cc2)c1` [5-{[4-(3-acetamidophenyl)phenyl]methyl}-N-(propan-2-yl)-1,3-oxazole-4-carboxamide] had a 50% inhibitory concentration (IC50) of 3580 nM.

Compound `CC(=O)Nc1cccc(-c2ccc(Cc3ocnc3C(=O)NCCc3ccccn3)cc2)c1` [5-{[4-(3-acetamidophenyl)phenyl]methyl}-N-[2-(pyridin-2-yl)ethyl]-1,3-oxazole-4-carboxamide] returned a half-maximal inhibitory concentration (IC50) of 1010 nM. `CC(=O)Nc1cccc(-c2ccc(Cc3ocnc3C(=O)NCCc3cccnc3)cc2)c1` [5-{[4-(3-acetamidophenyl)phenyl]methyl}-N-[2-(pyridin-3-yl)ethyl]-1,3-oxazole-4-carboxamide] had an IC50 of 741 nM. With `CC(=O)Nc1cccc(-c2ccc(Cc3ocnc3C(=O)NCCc3ccncc3)cc2)c1` [5-{[4-(3-acetamidophenyl)phenyl]methyl}-N-[2-(pyridin-4-yl)ethyl]-1,3-oxazole-4-carboxamide], the IC50 was determined as 476 nM. `CC(=O)Nc1cccc(-c2ccc(Cc3ocnc3C(=O)N[C@H]3C[C@@H]3c3ccccc3)cc2)c1` [5-{[4-(3-acetamidophenyl)phenyl]methyl}-N-[(1S,2R)-2-phenylcyclopropyl]-1,3-oxazole-4-carboxamide] had a half-maximal inhibitory concentration (IC50) of 358 nM. For `CC(=O)Nc1cccc(-c2ccc(Cc3ocnc3C(=O)NC[C@H](C)c3ccccc3)cc2)c1` [5-{[4-(3-acetamidophenyl)phenyl]methyl}-N-[(2R)-2-phenylpropyl]-1,3-oxazole-4-carboxamide], the concentration for half-maximal inhibition (IC50) turned out to be 51 nM. As to `CC(=O)Nc1cccc(-c2ccc(Cc3ocnc3C(=O)NC[C@@H](C)c3ccccc3)cc2)c1` [5-{[4-(3-acetamidophenyl)phenyl]methyl}-N-[(2S)-2-phenylpropyl]-1,3-oxazole-4-carboxamide], the IC50 was found to be 296 nM.

For the compound `CNC(=O)c1ncoc1Cc1ccc(-c2cccc(NC(C)=O)c2)cc1` [5-{[4-(3-acetamidophenyl)phenyl]methyl}-N-methyl-1,3-oxazole-4-carboxamide], the IC50 turned out to be 3310 nM. `CC(=O)Nc1cccc(-c2ccc(Cc3ocnc3C(=O)N(C)CCc3ccccc3)cc2)c1` [5-{[4-(3-acetamidophenyl)phenyl]methyl}-N-methyl-N-(2-phenylethyl)-1,3-oxazole-4-carboxamide] returned a concentration for half-maximal inhibition (IC50) of 2130 nM. Regarding `CC(=O)Nc1cccc(-c2ccc(Cc3ocnc3C(=O)Nc3ccccc3)cc2)c1` [5-{[4-(3-acetamidophenyl)phenyl]methyl}-N-phenyl-1,3-oxazole-4-carboxamide], the 50% inhibitory concentration (IC50) is 828 nM.

`CC(=O)Nc1cccc(-c2ccc(Cc3ocnc3C(=O)N[C@H](Cc3ccccc3)C(=O)O)cc2)c1` [(2R)-2-[(5-{[4-(3-acetamidophenyl)phenyl]methyl}-1,3-oxazol-4-yl)formamido]-3-phenylpropanoic acid] registered an IC50 of 831 nM.

`CC(=O)Nc1cccc(-c2ccc(Cc3ocnc3C(=O)N[C@@H](Cc3ccccc3)C(=O)O)cc2)c1` [(2S)-2-[(5-{[4-(3-acetamidophenyl)phenyl]methyl}-1,3-oxazol-4-yl)formamido]-3-phenylpropanoic acid]: the IC50 is 16 nM.

For `CC(=O)Nc1cccc(-c2ccc(Cc3ocnc3C(=O)NCCN(C)C)cc2)c1` [N-[2-(dimethylamino)ethyl]-5-{[4-(3-acetamidophenyl)phenyl]methyl}-1,3-oxazole-4-carboxamide], the IC50 was 3310 nM. On to `CC(=O)Nc1cccc(-c2ccc(Cc3ocnc3C(=O)NCc3ccccc3)cc2)c1` [N-benzyl-5-{[4-(3-acetamidophenyl)phenyl]methyl}-1,3-oxazole-4-carboxamide], for which the IC50 came to 66 nM.

The same experiment, now with this note: pH 7.4; 22 °C; read-out: IC50.
As for `CC(=O)Nc1cccc(-c2ccc(Cc3ocnc3C(=O)NC(C)C)cc2)c1` [5-{[4-(3-acetamidophenyl)phenyl]methyl}-N-(propan-2-yl)-1,3-oxazole-4-carboxamide], the concentration for half-maximal inhibition (IC50) was 12400 nM.
